In brackets after ≈: the same amount, converted by molar mass. Residues, ends and D or L forms follow the SMILES beside them. *: point of attachment. Cbz = O=C(OCc1ccccc1)*

Assay [1] relates to RAW264.7. The assay is described as follows: Antiinflammatory activity in mouse RAW264.7 cells assessed as inhibition of LPS-induced NO production after 5 mins by Greiss method. The class given is functional, cell-based. The conditions noted are these: RAW264.7, 5 min.
For assay [2], the system named is RAW264.7. The assay is described as follows: Antiinflammatory activity in mouse RAW264.7 cells assessed as inhibition of IFNgamma-induced NO production after 5 mins by Greiss method. The class given is functional, cell-based. The conditions noted are these: RAW264.7, 5 min.

Turning to `C=C(C)[C@]1(O)CC[C@@]2(C)CCC(=O)[C@@]3(C)O[C@@]23C1` [OXYPHYLLANENE D], the concentration for half-maximal inhibition (IC50) in the assay with RAW264.7 [1] and with RAW264.7 [2] was 9.85 µg/mL (≈ 39.3 µM) each time.
On to `C=C(C)[C@@H]1CC[C@@]2(C)[C@H](O)CC[C@](C)(O)[C@@H]2C1` (racemic), for which the IC50 in the assay with RAW264.7 [1] and in the assay with RAW264.7 [2] was 13.5 µg/mL (≈ 56.8 µM) in each case.
As to `C=C(C)[C@@H]1CC[C@@]2(C)CCC(=O)C(C)=C2[C@@H]1O`, the half-maximal inhibitory concentration (IC50) in the assay with RAW264.7 [1] and with RAW264.7 [2] was 12.5 µg/mL (≈ 53.4 µM) throughout.
`CC1=C2C[C@H](C(C)(O)CO)CC[C@@]2(C)CCC1=O` (stereo partly drawn): the IC50 with RAW264.7 [1] and in the assay with RAW264.7 [2] was 13.3 µg/mL (≈ 52.6 µM) each time.
For `C[C@@]12CCC(=O)C=C1[C@@](C)(O)[C@H](O)CC2` [OXYPHYLLENONE A], the half-inhibitory concentration (IC50) in the assay with RAW264.7 [1] and with RAW264.7 [2] was 12 µg/mL (≈ 57 µM) in each case.
`C=C(C)[C@]1(O)CC[C@]2(C)CC(=O)C=C(C)[C@H]2C1`: the IC50 with RAW264.7 [1] and with RAW264.7 [2] was 11.6 µg/mL (≈ 49.6 µM) in each case.
For the compound `CC1=C2C=C(C(C)(O)CO)CC[C@]2(C)CCC1=O` (stereo partly drawn) [OXYPHYLLANENE F], the half-maximal inhibitory concentration (IC50) with RAW264.7 [1] and in the assay with RAW264.7 [2] was 13.9 µg/mL (≈ 55.7 µM) throughout.
In the case of `CC(C)C[C@@H](C=O)NC(=O)[C@H](CC(C)C)NC(=O)[C@H](CC(C)C)NC(=O)OCc1ccccc1` [MG-132] (Cbz-Leu-Leu-Leu-aldehyde), the IC50 with RAW264.7 [1] and in the assay on RAW264.7 [2] was 0.17 µg/mL (≈ 0.357 µM) in each case.
For `C=C(C)[C@]1(O)CC[C@@]2(C)CCC(=O)C(C)=C2C1`, the IC50 in the assay with RAW264.7 [1] and in the assay on RAW264.7 [2] was 11.4 µg/mL (≈ 48.6 µM) in each case.
On to `C=C(C)[C@@H]1CC[C@]2(C)C(=C(C)C(=O)C[C@H]2O)C1` [LIGUCYPERONOL], for which the half-maximal inhibitory concentration (IC50) with RAW264.7 [1] and in the assay on RAW264.7 [2] was 12.1 µg/mL (≈ 51.8 µM) each time.
With `C=C(C)[C@@]1(O)CC[C@]2(C)CC(=O)C=C(C)[C@H]2C1` [TEUCRENONE], the IC50 in the assay with RAW264.7 [1] and in the assay with RAW264.7 [2] was 11.4 µg/mL (≈ 48.5 µM) each time.
With `CC(=O)[C@]12CC[C@@]3(C)CCC(=O)C(C)=C3[C@H]1O2` [OXYPHYLLANENE C], the 50% inhibitory concentration (IC50) in the assay with RAW264.7 [1] and in the assay with RAW264.7 [2] was 11 µg/mL (≈ 47 µM) throughout.
On to `C[C@@]12CCC[C@](C)(O)C1=CC(=O)CC2` [TEUHETENONE A], for which the IC50 in the assay with RAW264.7 [1] and in the assay with RAW264.7 [2] was 12.9 µg/mL (≈ 66.6 µM) in each case.
Take `C=C1[C@@H](O)CC[C@]2(C)CC[C@](O)(C(=C)C)C[C@@H]12` (relative stereo): the IC50 in the assay with RAW264.7 [1] and in the assay on RAW264.7 [2] was 13.5 µg/mL (≈ 57.2 µM) throughout.
